The results in this text go back to patent US9562060B2, “Heterocyclic pyridone compound, and intermediate, preparation method and use thereof” (SHANGHAI HUILUN LIFE SCIENCE & TECHNOLOGY CO., LTD, priority 2011, dated 2017).

Test [1] concerns the target T1, c-Met kinase (Homo sapiens, UniProt P08581).
T1 construct: purchased Invitrogen PV3143
Briefly: Inhibitory activity of compound to c-Met kinases (Z'-LYTE kinase assay kit). The class given is biochemical. The settings on record: Tyr 6 substrate peptide, read-out: Strength of activity (inhibition on c-Met kinase, IC50). As to the method:
The inhibitory activity of the compound to c-Met kinases in vitro is determined through the following method.
The method described below can be used to determine the inhibiting capacity of the compound of the present invention on the c-Met kinase activity, and the inhibiting capacity is represented by IC50. The half inhibitory concentration IC50 (a concentration of the compound for inhibiting the enzyme activity to 50%) of the compound is obtained by: mixing and reacting a certain amount of kinase with a specific substrate and different concentrations of test compound, and then labeling the substrate with an anti-phosphotyrosine antibody and a […], and finally quantitatively determining the c-Met kinase activity through a time-resolved fluorescence method.
The specific experiment is implemented by using a Z′-LYTE kinase assay kit (Invitrogen, item PV4122). First, the test compound is diluted into 8 different concentrations from 100 μM at an interval of 1:5 with an ATP solution (Invitrogen, item PV3227); 5 μL 2×c-Met (Invitrogen, item PV3143) and 2×Z′-LYTE Tyr 6 substrate peptide are respectively taken up, and added to a 384-well microtiter plate, 5 μL diluted different concentrations of test compound are added in sequence, and the lid is closed. The microtiter plate is incubated for 60 min at room temperature (20° C. to 25° C.); and then 5 μL […] is added, and the lid is closed. The microtiter plate is incubated for 60 min at room temperature (20° C. to 25° C.); and then 5 μL termination reagent is added to the reaction well, to terminate the reaction. Finally, the fluorescence intensity (OD400) of each well is determined in a fluorescence analyzer (excitation wavelength: 400 nm). The inhibition rate is calculated, and the half inhibitory concentration (IC50) of the compound is calculated according to the inhibition rates of different concentrations.
For a negative control group, except that test compound (replaced by 5 μL ATP solution) is not added, all the other reagents are added. In addition, an enzyme-free control group (that is, blank group) is set.

Test [2] concerns Human gastric cancer cell SNU-5. Briefly: Inhibition of in vitro proliferation of human gastric cancer cell SNU-5 (SRB). To be noted: SNU-5 cells, 72-hr agent treatment, read-out: Strength of activity (inhibition on SNU-5, IC50). The class given is cell-based. As to the method: Human gastric cancer cells SNU-5 are cultured in an IMDM medium containing 20% fetal bovine serum, and the culture conditions are 37° C. and 5% CO2. Tumor cells are inoculated in a 96-well plate, and after 24-hr sidewall growth, 9 different concentrations of (1 to 30000 nM) an agent are added, after 72-hr agent treatment, the medium is discarded, the cells are fixed by cold trichloroacetic acid, and then dyed with a sulforhodamine B (SRB) solution. Unbound SRB is washed off, and SRB bound with protein was dissolved with Tris, the OD is determined at a wavelength of 510 nm by a microplate reader, and the cell growth inhibition rate is calculated according to the following equation: Inhibition rate=(OD of control well-OD of administered well)/OD of control well×100%
According to the inhibition rates of different concentrations, the half inhibitory concentration IC50 is calculated by using a Logit method.

Test [3] deals with human malignant glioma U87-MG xenografts. Briefly: Efficacy on human malignant glioma U87-MG xenografts in nude mice. It counts as in vivo, BALB/cA-nude nude mice. The settings on record: 100 mg/kg orally once per day for 16 days. The protocol:
The human malignant glioma U87-MG is purchased from ATCC (American Type Culture Collection), America.
BALB/cA-nude nude mice (♀, 6-7 weeks old) are purchased from Shanghai SLAC Laboratory Animal Co. Ltd. Breeding environment: SPF grade.
In vitro-cultured malignant glioma U87-MG cells are inoculated subcutaneously in nude mice, and after the tumor grows to a size of 100 to 250 mm^3, the animals are randomly divided into groups (d0). The dose of the test agent is 100 mg/kg, and the agent is orally administered once per day for continuous 16 days. The volume of the tumor is measured two to three times per week, the mice are weighed, and the data is recorded. The tumor volume (V) is calculated according to the equation: V=1/2×a×b^2, where a and b respectively represent length and width.
The antineoplastic efficacy is evaluated according to tumor inhibition rate, and the tumor inhibition rate is calculated according to the equation below: Tumor inhibition rate=1−(T−T0)/(C−C0), • where T and C are respectively tumor volumes of the test agent group mice and the blank group mice at the end of the experiment; and T0 and C0 are tumor volumes at the start of the experiment.

Each structure is given as a SMILES string. Where two headings read alike, the source gives them in different places.

T1 sequence (P08581 25-1390): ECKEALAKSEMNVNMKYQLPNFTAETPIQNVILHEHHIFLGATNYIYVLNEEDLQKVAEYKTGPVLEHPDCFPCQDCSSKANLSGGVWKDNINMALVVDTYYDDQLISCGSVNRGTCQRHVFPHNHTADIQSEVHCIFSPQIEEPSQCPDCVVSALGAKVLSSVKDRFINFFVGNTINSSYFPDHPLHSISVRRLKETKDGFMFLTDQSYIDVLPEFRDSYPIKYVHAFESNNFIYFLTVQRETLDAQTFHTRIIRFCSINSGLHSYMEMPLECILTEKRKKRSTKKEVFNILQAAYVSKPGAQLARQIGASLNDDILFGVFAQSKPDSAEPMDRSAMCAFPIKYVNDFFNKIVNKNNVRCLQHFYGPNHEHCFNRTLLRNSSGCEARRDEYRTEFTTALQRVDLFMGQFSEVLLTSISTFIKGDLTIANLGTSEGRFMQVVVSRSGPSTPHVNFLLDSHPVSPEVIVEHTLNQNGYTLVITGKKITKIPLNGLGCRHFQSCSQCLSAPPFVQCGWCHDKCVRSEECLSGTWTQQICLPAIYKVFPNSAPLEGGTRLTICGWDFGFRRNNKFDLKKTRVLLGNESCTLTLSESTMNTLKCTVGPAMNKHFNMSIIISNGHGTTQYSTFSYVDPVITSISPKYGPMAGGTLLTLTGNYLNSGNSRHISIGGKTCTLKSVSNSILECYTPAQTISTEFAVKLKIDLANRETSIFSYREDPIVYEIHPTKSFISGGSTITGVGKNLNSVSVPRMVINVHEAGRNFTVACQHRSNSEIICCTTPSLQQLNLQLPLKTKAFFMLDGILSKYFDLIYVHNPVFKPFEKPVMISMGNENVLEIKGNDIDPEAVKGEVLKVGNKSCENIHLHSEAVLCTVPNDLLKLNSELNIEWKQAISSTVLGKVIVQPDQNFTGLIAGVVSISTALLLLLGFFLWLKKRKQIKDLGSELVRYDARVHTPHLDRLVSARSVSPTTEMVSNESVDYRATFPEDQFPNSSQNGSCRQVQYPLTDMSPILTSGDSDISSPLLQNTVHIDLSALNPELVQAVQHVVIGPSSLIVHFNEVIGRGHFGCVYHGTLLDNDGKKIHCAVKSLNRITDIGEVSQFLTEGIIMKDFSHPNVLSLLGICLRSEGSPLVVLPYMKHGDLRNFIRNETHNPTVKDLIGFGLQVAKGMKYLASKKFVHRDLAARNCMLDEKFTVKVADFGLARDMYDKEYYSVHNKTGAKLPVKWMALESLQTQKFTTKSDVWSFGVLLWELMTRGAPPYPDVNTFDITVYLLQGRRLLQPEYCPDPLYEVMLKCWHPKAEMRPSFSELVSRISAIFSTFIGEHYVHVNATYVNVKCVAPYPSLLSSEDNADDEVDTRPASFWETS

With `Nc1cc(Oc2ccc(NC(=O)c3cc4ncsc4n(-c4ccc(F)cc4)c3=O)cc2F)ccn1` [Embodiment 1], the 50% inhibitory concentration (IC50) (in general, the concentration needed to halve the response being measured) in test [1] is 10 to 100 nM; in test [2] (Homo sapiens) it was under 100 nM. Besides, the “Tumor Inhibition Rate (%)” value in test [3] worked out at 62%.
For `Nc1nccc(Oc2ccc(NC(=O)c3cc4ncsc4n(-c4ccc(F)cc4)c3=O)cc2F)c1Cl` [Embodiment 2], the values for the IC50 in test [1] and in test [2] (Homo sapiens) were under 10 nM and 100 to 500 nM, respectively. In addition, in test [3], the “Tumor Inhibition Rate (%)” value worked out at 16%.
For `COc1ccc2c(Oc3ccc(NC(=O)c4cc5ncsc5n(-c5ccc(F)cc5)c4=O)cc3F)ccnc2c1` [Embodiment 3] the same measures were 10 to 100 nM, 100 to 500 nM and 91%.
With `O=C(Nc1ccc(Oc2ccnc3[nH]ccc23)c(F)c1)c1cc2ncsc2n(-c2ccc(F)cc2)c1=O` [Embodiment 4], the IC50 in test [1] is under 10 nM; in test [2], 100 to 500 nM. Further, in test [3], the “Tumor Inhibition Rate (%)” value turned out to be 26%.
In the case of `COc1cc2c(Oc3ccc(NC(=O)c4cc5ncsc5n(-c5ccc(F)cc5)c4=O)cc3F)ccnc2cc1OCCCN1CCOCC1` [Embodiment 5], the IC50 in test [1] is under 10 nM; in test [2] it was under 100 nM. For the same compound, the “Tumor Inhibition Rate (%)” value in test [3] is given as 74%.
In the case of `COc1cc2c(Oc3ccc(NC(=O)c4cc5cnn(C)c5n(-c5ccc(F)cc5)c4=O)cc3F)ccnc2cc1OCCCN1CCOCC1` [Embodiment 32], the IC50 in test [1] was in the range of 100 to 1000 nM; in test [2] (Homo sapiens) it was 100 to 500 nM.
Take `Cn1cnc2cc(C(=O)Nc3ccc(Oc4ccnc5[nH]ccc45)c(F)c3)c(=O)n(-c3ccc(F)cc3)c21` [Embodiment 36]: the IC50 in test [1] was 10 to 100 nM; in test [2] (Homo sapiens) it was 500 to 5000 nM.
For the compound `COc1cc2c(Oc3ccc(NC(=O)c4cc5ncn(C)c5n(-c5ccc(F)cc5)c4=O)cc3F)ccnc2cc1OCCCN1CCOCC1` [Embodiment 37], the results for the IC50 in test [1] and in test [2] (Homo sapiens) were under 10 nM and 100 to 500 nM, respectively.
As for `CN1CCOc2cc(C(=O)Nc3ccc(Oc4ccnc(N)c4Cl)c(F)c3)c(=O)n(-c3ccc(F)cc3)c21` [Embodiment 38], the values for the IC50 in test [1] and in test [2] (Homo sapiens) were 100 to 1000 nM and 500 to 5000 nM, respectively.
On to `CCOc1c(C(=O)Nc2ccc(Oc3ccnc4[nH]ccc34)c(F)c2)c(=O)n(-c2ccc(F)cc2)c2scnc12` [Embodiment 51], for which the IC50 in test [1] was 100 to 1000 nM; in test [2] it was 100 to 500 nM.
